In brackets after ≈: the same amount, converted by molar mass. Several values for one entry are separate records, joined by “and”; a condition that tells them apart may be missing. Identical values can stand only once. Where no end group is shown, it is not given here.
Assays:
[1] = tested on: human erythrocytes; experiment: Haemolytic activity; format: cell-based; conditions: 37 °C, 30 min; for MHC, minimum haemolytic concentration: concentration causing 10% haemolysis of hRBC, 200 μM used when no haemolysis detectable at 100 μM; for haemolysis rate / haemolytic activity: human erythrocytes, relative to 0.1% Triton X-100; for haemolytic activity: 25 μM peptide
Experimental: Haemolytic activity of the peptides was assayed by a standard procedure with slight modification. Fresh human erythrocytes were washed three times and resuspended at 1.25% haematocrit in PBS. Forty microlitres PBS-diluted peptide solution was added to a V-bottom 96-well plate (Corning Inc., Lowell, MA, USA), and 160 μl of erythrocytes was added. After incubation at 37 °C for 30 min, the samples were centrifuged, and the absorbance of the supernatant was measured at 450 nm using a multi-well microplate reader (SpectraMax M5; Molecular Devices, Sunnyvale, CA, USA) and compared with the 100% haemolysis caused by 0.1% Triton X-100. The percentage of haemolysis was calculated according to the equation (2): […]

[2] = tested on: L929 mouse fibroblast cells; experiment: Cytotoxicity, MTT assay; format: cell-based; conditions: 50 μM peptide, 1 hour
Experimental: The toxicity of the peptides against L929 mouse fibroblast cells was assessed by a standard MTT assay. L929 mouse fibroblast cells from ATCC (Manassas, VA, USA) were maintained in our laboratory. L929 cells were cultured in RPMI 1640 supplemented with 10% (v/v) FBS, 2 mM L-glutamine, 100 U/ml penicillin and […] streptomycin and maintained in a humidified incubator with 5% CO2 at 37 °C. L929 cells (5 × 10^3cells/well) were seeded in 96-well plates (Corning Inc., Lowell, MA, USA) and incubated overnight. Diluted peptides were added to L929 cells and incubated for 1 hour. Then, 20 μl of MTT (5 mg/ml) solution was added and incubated for 4 hours. The medium was removed, and 150 μl of DMSO was added to each well to dissolve the formazan crystals. The absorbance was measured at 490 nm on a microplate reader (SpectraMax M5; Molecular Devices, Sunnyvale, CA, USA). Cell viabilities were calculated by using the equation (3): […]

[3] = tested on: Bacillus subtilis (1.3376); experiment: Antimicrobial activity, broth microdilution MIC; format: cell-based; conditions: modified CLSI broth microdilution, LB medium, 1 × 10^6 CFU/ml, 37 °C, 18 to 20 hours, absorbance 600 nm
Experimental: (§1) The antibacterial activities of the peptides against three Gram-negative bacteria and three Gram-positive bacteria strains were measured using a modified version of the Clinical Laboratory and Standards Institute (CLSI) broth microdilution method as described previously. Three Gram-negative bacteria, Escherichia coli (1.8732), Pseudomonas aeruginosa (1.2421), and Klebsiella pneumonia (1.1736), and three Gram-positive bacteria, Staphylococcus aureus (1.8721), Staphylococcus epidermidis (1.4260), and Bacillus subtilis (1.3376), were purchased from the China General Microbiological Culture Collection Centre (CGMCC). Briefly, bacteria were grown in liquid LB medium (tryptone, 10 g/L, yeast extract, 5 g/L and NaCl, 10 g/L) at 37 °C to mid-log phase, and the bacteria were diluted to 1 × 10^6 colony-forming units (CFU)/ml. The peptides were serially diluted with phosphate-buffered saline (PBS), and 50 μl diluted peptides were added to 50 μl of the bacterial suspension in 96-well plate (Corning Inc., Lowell, MA, USA). After incubation at 37 °C for 18 to 20 hours, the absorbance of each well was recorded using a multi-well microplate reader (SpectraMax M5; Molecular Devices, Sunnyvale, CA, USA) at 600 nm. The lowest concentration at which the peptide inhibited complete growth of the bacteria was taken as the minimal inhibitory concentration (MIC).

[4] = tested on: Escherichia coli (1.8732); experiment: Antimicrobial activity, broth microdilution MIC; format: cell-based; conditions: modified CLSI broth microdilution, LB medium, 1 × 10^6 CFU/ml, 37 °C, 18 to 20 hours, absorbance 600 nm
Experimental: as §1

[5] = tested on: Klebsiella pneumonia (1.1736); experiment: Antimicrobial activity, broth microdilution MIC; format: cell-based; conditions: modified CLSI broth microdilution, LB medium, 1 × 10^6 CFU/ml, 37 °C, 18 to 20 hours, absorbance 600 nm
Experimental: as §1

[6] = tested on: Pseudomonas aeruginosa (1.2421); experiment: Antimicrobial activity, broth microdilution MIC; format: cell-based; conditions: modified CLSI broth microdilution, LB medium, 1 × 10^6 CFU/ml, 37 °C, 18 to 20 hours, absorbance 600 nm
Experimental: as §1

[7] = tested on: Staphylococcus aureus (1.8721); experiment: Antimicrobial activity, broth microdilution MIC; format: cell-based; conditions: modified CLSI broth microdilution, LB medium, 1 × 10^6 CFU/ml, 37 °C, 18 to 20 hours, absorbance 600 nm
Experimental: as §1

[8] = tested on: Staphylococcus epidermidis (1.4260); experiment: Antimicrobial activity, broth microdilution MIC; format: cell-based; conditions: modified CLSI broth microdilution, LB medium, 1 × 10^6 CFU/ml, 37 °C, 18 to 20 hours, absorbance 600 nm
Experimental: as §1

[9] = tested on: Gram-negative bacteria; format: cell-based, E. coli, P. aeruginosa, K. pneumoniae; conditions: for TI, therapeutic index: ratio of MHC to GM
Experimental: (§2) The antimicrobial activities of the peptides, indicated by the minimum inhibitory concentrations (MIC), were determined against a range of Gram-negative (Table 3) and Gram-positive bacterial strains (Table 4). The geometric mean of MIC values (GM) from the three strains was calculated to provide an overall evaluation of antimicrobial activity.
(§3) The therapeutic index (TI) is defined as the ratio of the minimum haemolytic concentration (MHC) of peptides to the GM of peptides, and this value was used to evaluate cell selectivity of peptides towards the negatively charged region of bacterial cell membranes over the zwitterionic mammalian cell membranes.
as §1

[10] = tested on: Gram-positive bacteria; format: cell-based, S. aureus, S. epidermidis, B. subtilis; conditions: for TI, therapeutic index: ratio of MHC to GM
Experimental: as §2, §3, §1

AIGSILGRLAKGLPTLKSWIKNR-NH2 [A(A8R, I17K)]
MHC, minimum haemolytic concentration [1]: 100 µM | viability of treated L929 cells [2]: 21.1% | MIC B. subtilis [3]: 12.5 µM | MIC E. coli [4]: 25 µM | MIC K. pneumoniae [5]: 25 µM | MIC P. aeruginosa [6]: 25 µM | MIC S. aureus [7]: 100 µM | MIC S. epidermidis [8]: 6.25 µM | TI, therapeutic index ([9]; Gram-negative bacteria): 4 | TI, therapeutic index ([10]; Gram-positive bacteria): 5.04

RIGSILGRLAKGLPTLRSWIKNR-NH2 [A(A1R, A8R, I17R)]
MHC, minimum haemolytic concentration [1]: 100 µM | MIC B. subtilis [3]: 12.5 µM | MIC E. coli [4]: 12.5 µM | MIC K. pneumoniae [5]: 12.5 µM | MIC P. aeruginosa [6]: 12.5 µM | MIC S. aureus [7]: 100 µM | MIC S. epidermidis [8]: 3.13 µM | TI, therapeutic index ([9]; Gram-negative bacteria): 8 | TI, therapeutic index ([10]; Gram-positive bacteria): 6.35

M(G1R, V8R, I17R): melittin analogue with residues at position 1, 8 and 17 replaced by positively charged residues (RIGAVLKRLTTGLPALRSWIKRKRQQ; not fully specified; ends and bridges not checked; UniProt P01501 44-69, looked up, variant G1R V8R I17R)
MHC, minimum haemolytic concentration [1]: 200 µM | MIC B. subtilis [3]: 3.125 µM | MIC E. coli [4]: 25 µM | MIC K. pneumoniae [5]: 12.5 µM | MIC P. aeruginosa [6]: 25 µM | MIC S. aureus [7]: 100 µM | MIC S. epidermidis [8]: 6.25 µM | GM, geometric mean of MIC ([9]; Gram-negative strains E. coli, P. aeruginosa, K. pneumoniae): 19.8 µM | Fold ([9]; Table S2, TI compared with melittin, Gram-negative bacteria): 101 | TI, therapeutic index ([9]; Gram-negative bacteria): 10.1 | GM, geometric mean of MIC ([10]; Gram-positive strains S. aureus, S. epidermidis, B. subtilis): 12.5 µM | Fold ([10]; Table S3, TI compared with melittin, Gram-positive bacteria): 64 | TI, therapeutic index ([10]; Gram-positive bacteria): 16

RIGSILGRLAKGLPTLISWIKNR-NH2 [A(A1R, A8R)]
MHC, minimum haemolytic concentration [1]: 6.25 µM | MIC B. subtilis [3]: 6.25 µM | MIC E. coli [4]: 6.25 µM | MIC K. pneumoniae [5]: 6.25 µM | MIC P. aeruginosa [6]: 6.25 µM | MIC S. aureus [7]: 12.5 µM | MIC S. epidermidis [8]: 3.13 µM | TI, therapeutic index ([9]; Gram-negative bacteria): 1 | TI, therapeutic index ([10]; Gram-positive bacteria): 1

RIGSILGALAKGLPTLISWIKNR-NH2 [A(A1R)]
haemolysis rate ([1]; 3.13 μM peptide): 25.9% | MHC, minimum haemolytic concentration [1]: 3.12 µM and 3.13 µM | MIC B. subtilis [3]: 6.25 µM | MIC E. coli [4]: 12.5 µM | MIC K. pneumoniae [5]: 12.5 µM | MIC P. aeruginosa [6]: 6.25 µM | MIC S. aureus [7]: 6.25 µM | MIC S. epidermidis [8]: 3.13 µM | TI, therapeutic index ([9]; Gram-negative bacteria): 0.31 | TI, therapeutic index ([10]; Gram-positive bacteria): 0.63

AIGSILGALAKGLPTLKSWIKNR-NH2 [A(I17K)]
haemolytic activity [1]: 6.4% | haemolysis rate ([1]; 100 μM peptide): 33% | MHC, minimum haemolytic concentration [1]: 50 µM | viability of treated L929 cells [2]: 7.9% | MIC B. subtilis [3]: 6.25 µM | MIC E. coli [4]: 25 µM | MIC K. pneumoniae [5]: 50 µM | MIC P. aeruginosa [6]: 25 µM | MIC S. aureus [7]: 50 µM | MIC S. epidermidis [8]: 12.5 µM | TI, therapeutic index ([9]; Gram-negative bacteria): 1.59 | TI, therapeutic index ([10]; Gram-positive bacteria): 3.17

AIGSILGALAKGLPTLRSWIKNR-NH2 [A(I17R)]
haemolysis rate ([1]; 100 μM peptide): 74% | MHC, minimum haemolytic concentration [1]: 25 µM | viability of treated L929 cells [2]: 6.6% | MIC B. subtilis [3]: 3.13 µM | MIC E. coli [4]: 12.5 µM | MIC K. pneumoniae [5]: 25 µM | MIC P. aeruginosa [6]: 12.5 µM | MIC S. aureus [7]: 25 µM | MIC S. epidermidis [8]: 6.25 µM | TI, therapeutic index ([9]; Gram-negative bacteria): 1.59 | TI, therapeutic index ([10]; Gram-positive bacteria): 3.17

CC[C@H](C)[C@H](NC(=O)CN)C(=O)NCC(=O)N[C@@H](C)C(=O)N[C@H](C(=O)N[C@@H](CC(C)C)C(=O)N[C@@H](CCCCN)C(=O)N[C@H](C(=O)N[C@@H](CC(C)C)C(=O)N[C@H](C(=O)N[C@H](C(=O)NCC(=O)N[C@@H](CC(C)C)C(=O)N1CCC[C@H]1C(=O)N[C@@H](C)C(=O)N[C@@H](CC(C)C)C(=O)N[C@H](C(=O)N[C@@H](CO)C(=O)N[C@@H](Cc1c[nH]c2ccccc12)C(=O)N[C@H](C(=O)N[C@@H](CCCCN)C(=O)N[C@@H](CCCNC(=N)N)C(=O)N[C@@H](CCCCN)C(=O)N[C@@H](CCCNC(=N)N)C(=O)N[C@@H](CCC(N)=O)C(=O)N[C@@H](CCC(N)=O)C(N)=O)[C@@H](C)CC)[C@@H](C)CC)[C@@H](C)O)[C@@H](C)O)C(C)C)C(C)C [Melittin, reference compound]
MHC, minimum haemolytic concentration [1]: 0.78 µM | MIC K. pneumoniae [5]: 6.25 µM (≈ 17.8 µg/mL)

RIGSILGALAKGLPTLKSWIKNR-NH2 [A(A1R, I17K)]
MHC, minimum haemolytic concentration [1]: 100 µM | viability of treated L929 cells [2]: 6.3% | MIC B. subtilis [3]: 6.25 µM | MIC E. coli [4]: 25 µM | MIC K. pneumoniae [5]: 25 µM | MIC P. aeruginosa [6]: 12.5 µM | MIC S. aureus [7]: 100 µM | MIC S. epidermidis [8]: 6.25 µM | TI, therapeutic index ([9]; Gram-negative bacteria): 5.04 | TI, therapeutic index ([10]; Gram-positive bacteria): 6.35

RIGVLLARLPKLFSLFKLMGKKV-NH2 [RV-23, reference compound]
MHC, minimum haemolytic concentration [1]: 6.25 µM | MIC B. subtilis [3]: 3.125 µM and 3.13 µM | MIC E. coli [4]: 6.25 µM | MIC K. pneumoniae [5]: 6.25 µM | MIC P. aeruginosa [6]: 6.25 µM | MIC S. aureus [7]: 12.5 µM | MIC S. epidermidis [8]: 3.125 µM and 3.13 µM | TI, therapeutic index ([9]; Gram-negative bacteria): 1 | TI, therapeutic index ([10]; Gram-positive bacteria): 1.26

AIGSILGRLAKGLPTLISWIKNR-NH2 [A(A8R)]
haemolysis rate ([1]; 3.13 μM peptide): 12.9% | haemolytic activity [1]: 98.3% | MHC, minimum haemolytic concentration [1]: 3.12 µM and 3.13 µM | MIC B. subtilis [3]: 3.13 µM | MIC E. coli [4]: 12.5 µM | MIC K. pneumoniae [5]: 12.5 µM | MIC P. aeruginosa [6]: 12.5 µM | MIC S. aureus [7]: 3.13 µM | MIC S. epidermidis [8]: 3.13 µM | TI, therapeutic index ([9]; Gram-negative bacteria): 0.25 | TI, therapeutic index ([10]; Gram-positive bacteria): 1

Reference: publication PMC4897634, “Design of an α-helical antimicrobial peptide with improved cell-selective and potent anti-biofilm activity” (Scientific Reports, 2016)
